Source: publication PMC5634595, “Properties of halogenated and sulfonated porphyrins relevant for the selection of photosensitizers in anticancer and antimicrobial therapies” (PLoS ONE, 2017)

Test system: A549 cells
Assay: Dark cytotoxicity, MTT
Type: cell-based, human
Settings: A549, 100 μM, 24 h
Description: The studies were performed on human lung adenocarcinoma (A549), murine colon carcinoma (CT26) and murine endothelial/vascular epithelium (2H11) cell lines. A549, CT26 and 2H11 cells were grown in full-strength DMEM with 4.5 g/L glucose, L-glutamine, sodium pyruvate and 3.7 g/L NaHCO3 (BioTech) with addition of 10% fetal bovine serum (BioTech, Poland) and supplemented by antibiotics (penicillin/streptomycin). Before the experiments, the cells were washed with PBS, removed by trypsinization, then re-plated into microplate (or culture flask) with appropriate cells density and maintained in a humidified atmosphere at 37 °C and 5% CO2.
MTT cytotoxicity assay (which determines the mitochondrial activity), based upon the ability of living cells to reduce (3-(4,5-dimethylthiazol-2-yl)2,5-diphenyl tetrazolium bromide (MTT) into formazan was used to assess photosensitizer-mediated cytotoxicity. Two identical 96-well plates with A549, CT26 or 2H11 cell cultures seeded on 96-plate microplate (10^4 per well) were used for each experiment. When the cells were attached to the plates, PS solution in growth medium (DMSO<0.5%) at concentrations between 0.1 to 100 μM was added to the culture. Treated cultures were incubated for optimal time (estimated experimentally) at 37°C in the dark. […] Data were expressed as mean absorbance value of six samples and standard error of the mean.

O=S(=O)(O)c1ccc(F)c(-c2c3nc(c(-c4c(F)ccc(S(=O)(=O)O)c4F)c4ccc([nH]4)c(-c4c(F)ccc(S(=O)(=O)O)c4F)c4nc(c(-c5c(F)ccc(S(=O)(=O)O)c5F)c5ccc2[nH]5)C=C4)C=C3)c1F [F2POH, 5,10,15,20-tetrakis(2,6-difluoro-3-sulfophenyl)porphyrin]
Cytotoxicity in the dark: 25%
